Laboratory results: the NIST ThermoML archive (doi:10.1016/j.jct.2016.11.030)
± gives the expanded uncertainty stated by the source.

Columns and labels:
[1] = Molar enthalpy of transition or fusion; conditions: Crystal; DSC
[2] = Crystal; DTA

Molar enthalpy of transition or fusion [1]: 30.7 ± 1.4 kJ/mol | Normal melting temperature [2]: 116 ± 1.1 °C
Structure (SMILES): COc1cc(CO)ccc1O [4-hydroxy-3-methoxybenzyl alcohol]
